Measurements from PMC5912973 (ChemMedChem, 2018).
Read-outs that look alike come from different tables or passages of the source.

Key:
wild-type HIV-1NL4-3 = experiment: Antiviral p24 assay in MT-4 cells, wild-type HIV-1NL4-3; format: cell-based
HIVDRV^RP20 = experiment: microbe, parasite or virus in culture; format: cell-based, HIV-1; conditions: for fold change of IC50 relative to HIV-1NL4-3: HIVDRV^RP20 vs wild type
HIVDRV^RP30 = experiment: microbe, parasite or virus in culture; format: cell-based, HIV-1; conditions: for fold change of IC50 relative to HIV-1NL4-3: HIVDRV^RP30 vs wild type
HIVDRV^RP51 = experiment: microbe, parasite or virus in culture; format: cell-based, HIV-1; conditions: for fold change of IC50 relative to HIV-1NL4-3: HIVDRV^RP51 vs wild type
HIVSQV-5 μM = experiment: microbe, parasite or virus in culture; format: cell-based, HIV-1
HIVIDV-5 μM = experiment: microbe, parasite or virus in culture; format: cell-based, HIV-1
HIVNFV-5 μM = experiment: microbe, parasite or virus in culture; format: cell-based, HIV-1
HIVAPV-5 μM = experiment: microbe, parasite or virus in culture; format: cell-based, HIV-1
HIVLPV-5 μM = experiment: microbe, parasite or virus in culture; format: cell-based, HIV-1
HIVATV-5 μM = experiment: microbe, parasite or virus in culture; format: cell-based, HIV-1
HIVTPV-15 μM = experiment: microbe, parasite or virus in culture; format: cell-based, HIV-1
HIV-1 protease = HIV-1 protease (Human immunodeficiency virus type 1 group M subtype B, UniProt P04585); experiment: HIV-1 protease inhibitory activity, assay protocol of Toth and Marshall; format: biochemical; conditions: as printed in text or footnote
HIVLAI = experiment: Antiviral activity in MT-2 human T-lymphoid cells exposed to HIVLAI; format: cell-based, HIV-1; conditions: MT-2/HIVLAI
[1] = target: dimerization of HIV-1 protease subunits (Human immunodeficiency virus type 1 group M subtype B, UniProt P12497); experiment: FRET-based HIV-1 expression assay of protease dimerization in COS-7 cells; format: cell-based
[2] = brain concentration 32.6 nM at 360 min; ref [23]; cited from earlier work
[3] = read-out: IC50 ± SD, MT-4 cells, HIVNL4-3 WT, p24 assay
[4] = read-out: IC50 ± SD, MT-4 cells, HIVDRV^RP20, p24 assay
[5] = read-out: IC50 ± SD, MT-4 cells, HIVDRV^RP30, p24 assay
[6] = read-out: IC50 ± SD, MT-4 cells, HIVDRV^RP51, p24 assay
[7] = read-out: Mean IC50 ± SD, MT-4 cells, HIVATV-5 μM, p24 assay
[8] = Human immunodeficiency virus 1, MT4, read-out: IC50 ± SD
[9] = Human immunodeficiency virus 1, MT4, read-out: Mean IC50 ± SD

Q: With `COC(=O)N[C@H](C(=O)N[C@@H](Cc1ccccc1)[C@@H](O)CN(Cc1ccc(-c2ccccn2)cc1)NC(=O)[C@@H](NC(=O)OC)C(C)(C)C)C(C)(C)C` [ATV] as the compound, how does the IC50 (wild-type HIV-1NL4-3; [3]) read?
A: The IC50 was 5.2 ± 0.3 nM.

Q: What about the “fold change of IC50 relative to HIV-1NL4-3” value (HIVDRV^RP20) of the same compound?
A: Its value is > 192 fold.

Q: And the IC50 (HIVDRV^RP20; [4])?
A: The IC50 was > 1000 nM.

Q: And the “fold change of IC50 relative to HIV-1NL4-3” value (HIVDRV^RP30)?
A: The value was > 192 fold.

Q: What about the IC50 (HIVDRV^RP30; [5]) of the same compound?
A: Its IC50 is > 1000 nM.

Q: What about the “fold change of IC50 relative to HIV-1NL4-3” value (HIVDRV^RP51) of the same compound?
A: The value was > 192 fold.

Q: What about the IC50 (HIVDRV^RP51; [6]) of the same compound?
A: The IC50 was > 1000 nM.

Q: And the “fold-change of IC50 vs HIVNL4-3 WT” value (HIVSQV-5 μM; HIVSQV-5 μM)?
A: Its value is 105 fold.

Q: What about the IC50 (HIVSQV-5 μM; read-out: Mean IC50 ± SD, MT-4 cells, HIVSQV-5 μM, p24 assay) of the same compound?
A: The IC50 was 548 ± 177 nM.

Q: And the “fold-change of IC50 vs HIVNL4-3 WT” value (HIVIDV-5 μM; HIVIDV-5 μM)?
A: Its value is 11 fold.

Q: What about the IC50 (HIVIDV-5 μM; read-out: Mean IC50 ± SD, MT-4 cells, HIVIDV-5 μM, p24 assay) of the same compound?
A: Its IC50 is 59 ± 13 nM.

Q: What about the “fold-change of IC50 vs HIVNL4-3 WT” value (HIVNFV-5 μM; HIVNFV-5 μM) of the same compound?
A: Its value is 3.7 fold.

Q: And the IC50 (HIVNFV-5 μM; read-out: Mean IC50 ± SD, MT-4 cells, HIVNFV-5 μM, p24 assay)?
A: The IC50 was 19 ± 1 nM.

Q: And the “fold-change of IC50 vs HIVNL4-3 WT” value (HIVAPV-5 μM; HIVAPV-5 μM)?
A: Its value is 0.5 fold.

Q: What about the IC50 (HIVAPV-5 μM; read-out: Mean IC50 ± SD, MT-4 cells, HIVAPV-5 μM, p24 assay) of the same compound?
A: The IC50 was 2.4 ± 0.7 nM.

Q: What about the “fold-change of IC50 vs HIVNL4-3 WT” value (HIVLPV-5 μM; HIVLPV-5 μM) of the same compound?
A: Its value is 7 fold.

Q: What about the IC50 (HIVLPV-5 μM; read-out: Mean IC50 ± SD, MT-4 cells, HIVLPV-5 μM, p24 assay) of the same compound?
A: The IC50 was 36 ± 9 nM.

Q: And the “fold-change of IC50 vs HIVNL4-3 WT” value (HIVATV-5 μM; HIVATV-5 μM)?
A: The value was > 192 fold.

Q: And the IC50 (HIVATV-5 μM; [7])?
A: The IC50 was > 1000 nM.

Q: And the “fold-change of IC50 vs HIVNL4-3 WT” value (HIVTPV-15 μM; HIVTPV-15 μM)?
A: Its value is > 192 fold.

Q: And the IC50 (HIVTPV-15 μM; read-out: Mean IC50 ± SD, MT-4 cells, HIVTPV-15 μM, p24 assay)?
A: The IC50 was > 1000 nM.

Q: Which IC50 (wild-type HIV-1NL4-3; [8]) does the source give for `CC(C)CN(C[C@@H](O)[C@H](Cc1ccccc1)NC(=O)O[C@H]1CO[C@H]2OCC[C@H]21)S(=O)(=O)c1ccc(N)cc1` [DRV, darunavir] here?
A: The IC50 was 3.7 ± 0.7 nM.

Q: What about the IC50 (HIVDRV^RP20; [8]) of the same compound?
A: The IC50 was 60 ± 6 nM.

Q: And the IC50 (HIVDRV^RP30; [8])?
A: The IC50 was 134 ± 43 nM.

Q: What about the IC50 (HIVDRV^RP51; [8]) of the same compound?
A: The IC50 was 4670 ± 1260 nM.

Q: What about the IC50 (HIVSQV-5 μM; [9]) of the same compound?
A: Its IC50 is 22 ± 6 nM.

Q: What about the IC50 (HIVIDV-5 μM; [9]) of the same compound?
A: The IC50 was 42 ± 1 nM.

Q: What about the IC50 (HIVNFV-5 μM; [9]) of the same compound?
A: Its IC50 is 6.1 ± 0.8 nM.

Q: And the IC50 (HIVAPV-5 μM; [9])?
A: The IC50 was 43 ± 22 nM.

Q: And the IC50 (HIVLPV-5 μM; [9])?
A: Its IC50 is 275 ± 64 nM.

Q: And the IC50 (HIVATV-5 μM; [9])?
A: Its IC50 is 26 ± 1 nM.

Q: What about the IC50 (HIVTPV-15 μM; [9]) of the same compound?
A: Its IC50 is 41 ± 3 nM.

Q: Which Ki (HIV-1 protease) does the source give for `CC(C)CN(C[C@@H](O)[C@H](Cc1cc(F)cc(F)c1)NC(=O)O[C@H]1C2CO[C@H]3OC[C@@H]1C3C2)S(=O)(=O)c1ccc(N)cc1` (stereo partly drawn) [Inhibitor 4, (3S,7 aS,8S)-Hexahydro-4H-3,5-methanofuro[2,3-b]pyran-8-yl((2S,3R)-4-((4-amino-N-isobutylphenyl)sulfonamido)-1-(3,5-difluorophenyl)-3-hydroxybutan-2-yl)carbamate] here?
A: The Ki was 0.004 nM.

Q: And the IC50 (wild-type HIV-1NL4-3; [3])?
A: The IC50 was 5.9 ± 0.4 nM.

Q: And the “fold change of IC50 relative to HIV-1NL4-3” value (HIVDRV^RP20)?
A: The value was 4 fold.

Q: And the IC50 (HIVDRV^RP20; [4])?
A: Its IC50 is 24 ± 9 nM.

Q: What about the “fold change of IC50 relative to HIV-1NL4-3” value (HIVDRV^RP30) of the same compound?
A: Its value is 1.9 fold.

Q: And the IC50 (HIVDRV^RP30; [5])?
A: The IC50 was 11 ± 13 nM.

Q: And the “fold change of IC50 relative to HIV-1NL4-3” value (HIVDRV^RP51)?
A: Its value is 82 fold.

Q: And the IC50 (HIVDRV^RP51; [6])?
A: The IC50 was 486 ± 52 nM.

Q: With `CC(C)CN(C[C@@H](O)[C@H](Cc1cc(F)cc(F)c1)NC(=O)O[C@H]1C2CO[C@H]3OC[C@@H]1C3C2)S(=O)(=O)c1ccc2nc(NC3CC3)sc2c1` (stereo partly drawn) [Inhibitor 5, (3S,7 aS,8S)-Hexahydro-4H-3,5-methanofuro[2,3-b]pyran-8-yl((2S,3R)-4-((2-(cyclopropylamino)-N-isobutylbenzo[d]thiazole)-6-sulfonamido)-1-(3,5-difluorophenyl)-3-hydroxybutan-2-yl)carbamate] as the compound, how does the Ki (HIV-1 protease) read?
A: The Ki was 0.014 nM.

Q: And the “fold potency enhancement of antiviral IC50 over DRV” value (HIVLAI; vs DRV)?
A: The value was “more than 150 fold”.

Q: What about the “fold improvement of antiviral IC50 over compound 4” value (HIVLAI; vs compound 4) of the same compound?
A: The value was 100 fold.

Q: What about the “fold more potent than inhibitor 3 (antiviral)” value (HIVLAI; vs inhibitor 3) of the same compound?
A: The value was “over 15 fold”.

Q: What about the IC50 (wild-type HIV-1NL4-3; [3]) of the same compound?
A: Its IC50 is 0.016 ± 0.017 nM.

Q: What about the “fold change of IC50 relative to HIV-1NL4-3” value (HIVDRV^RP20) of the same compound?
A: The value was 0.1 fold.

Q: And the IC50 (HIVDRV^RP20; [4])?
A: The IC50 was 0.0016 ± 0.002 nM.

Q: And the “fold change of IC50 relative to HIV-1NL4-3” value (HIVDRV^RP30)?
A: The value was 1 fold.

Q: What about the IC50 (HIVDRV^RP30; [5]) of the same compound?
A: Its IC50 is 0.015 ± 0.015 nM.

Q: What about the “fold change of IC50 relative to HIV-1NL4-3” value (HIVDRV^RP51) of the same compound?
A: The value was 175 fold.

Q: What about the IC50 (HIVDRV^RP51; [6]) of the same compound?
A: The IC50 was 2.8 ± 0.2 nM.

Q: What about the “fold-change of IC50 vs HIVNL4-3 WT” value (HIVSQV-5 μM; HIVSQV-5 μM) of the same compound?
A: The value was 0.01 fold.

Q: What about the “fold-change of IC50 vs HIVNL4-3 WT” value (HIVIDV-5 μM; HIVIDV-5 μM) of the same compound?
A: The value was 0.02 fold.

Q: What about the “fold-change of IC50 vs HIVNL4-3 WT” value (HIVNFV-5 μM; HIVNFV-5 μM) of the same compound?
A: The value was 0.04 fold.

Q: And the “fold-change of IC50 vs HIVNL4-3 WT” value (HIVAPV-5 μM; HIVAPV-5 μM)?
A: Its value is 0.0006 fold.

Q: What about the “fold-change of IC50 vs HIVNL4-3 WT” value (HIVLPV-5 μM; HIVLPV-5 μM) of the same compound?
A: Its value is 0.0002 fold.

Q: What about the “fold-change of IC50 vs HIVNL4-3 WT” value (HIVATV-5 μM; HIVATV-5 μM) of the same compound?
A: Its value is 1.3 fold.

Q: What about the IC50 (HIVATV-5 μM; [7]) of the same compound?
A: Its IC50 is 0.02 ± 0.01 nM.

Q: What about the “fold-change of IC50 vs HIVNL4-3 WT” value (HIVTPV-15 μM; HIVTPV-15 μM) of the same compound?
A: Its value is 0.02 fold.

Q: And the “concentration at which dimerization of protease subunits is blocked” value [1]?
A: The value was 0.1 nM.

Q: And the “brain drug level relative to its IC50 value” [2]?
A: Its value is ~1880 fold.
